# Results from patent US12473304B2, “Heterocyclic PAD4 inhibitors” (BRISTOL-MYERS SQUIBB COMPANY, priority 2020, dated 2025).
# Molecular target: human PAD4 (hPAD4) (Homo sapiens (Human), UniProt Q9UM07)
# Assay: RFMS Human PAD4 Functional Assay 1
# Format: biochemical
# Conditions: RFMS assay 1; 5 nM hPAD4, 250 μM BAEE substrate, 50 μM calcium, 37° C.
# Procedure, shortened: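 Citrullination product read by RapidFire triple-quad MRM against a modified-citrulline internal standard, after TCA stop and 30 min phenyl glyoxal step at 37 °C. Reaction: 250 μM BAEE, 5 nM human PAD4, 90 min at 37 °C, pH 7.5 HEPES buffer with 50 μM calcium and 5 μM TPEN, following 30 min compound–enzyme preincubation (max 50 μM).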
# human PAD4 (hPAD4), sequence (Q9UM07 whole entry): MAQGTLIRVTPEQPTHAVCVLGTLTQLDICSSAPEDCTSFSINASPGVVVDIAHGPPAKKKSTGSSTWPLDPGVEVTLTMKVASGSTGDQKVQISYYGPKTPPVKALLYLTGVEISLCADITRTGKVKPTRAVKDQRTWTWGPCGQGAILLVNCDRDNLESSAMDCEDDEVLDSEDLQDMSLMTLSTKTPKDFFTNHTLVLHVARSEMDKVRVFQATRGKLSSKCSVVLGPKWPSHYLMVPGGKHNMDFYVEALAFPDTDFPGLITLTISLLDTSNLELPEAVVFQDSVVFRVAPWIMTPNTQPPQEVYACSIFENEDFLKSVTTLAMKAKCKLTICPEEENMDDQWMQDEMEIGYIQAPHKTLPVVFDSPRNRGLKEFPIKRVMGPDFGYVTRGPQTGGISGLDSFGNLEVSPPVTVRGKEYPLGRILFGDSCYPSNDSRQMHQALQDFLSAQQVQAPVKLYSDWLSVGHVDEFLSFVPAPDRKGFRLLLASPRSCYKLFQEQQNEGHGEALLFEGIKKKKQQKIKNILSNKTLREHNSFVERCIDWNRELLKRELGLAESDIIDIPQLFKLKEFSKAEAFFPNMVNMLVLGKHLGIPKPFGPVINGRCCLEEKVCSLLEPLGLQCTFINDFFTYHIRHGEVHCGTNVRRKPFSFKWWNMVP
row,IC50,SMILES
1,4340 nM,"COc1cc(C(=O)N2CC3CCC2[C@@H]3N)cc2sc(-c3cc4ccc(-c5cccc(F)c5C)cc4n3CC3CC3)c(C)c12 (stereo partly drawn) [Example 128, ((7R)-7-Amino-2-azabicyclo[2.2.1]heptan-2-yl)(2-(1-(cyclopropylmethyl)-6-(3-fluoro-2-methylphenyl)-1H-indol-2-yl)-4-methoxy-3-methylbenzo[b]thiophen-6-yl)methanone]"
2,376 nM,"COc1cc(-c2ccc3cc(-c4sc5cc(C(=O)N6CC7CCC6[C@@H]7N)cc(OC)c5c4C)n(CC4CC4)c3c2)ccn1 (stereo partly drawn) [Example 129, ((7R)-7-Amino-2-azabicyclo[2.2.1]heptan-2-yl)(2-(1-(cyclopropylmethyl)-6-(2-methoxypyridin-4-yl)-1H-indol-2-yl)-4-methoxy-3-methylbenzo[b]thiophen-6-yl)methanone]"
3,38 nM,"COc1cc(C(=O)N2CC3CCC2[C@@H]3N)cc2sc(-c3cc4ccc(N5CCC(N)CC5)cc4n3CC3CC3)c(C)c12 (stereo partly drawn) [Example 130, ((7R)-7-Amino-2-azabicyclo[2.2.1]heptan-2-yl)(2-(6-(4-aminopiperidin-1-yl)-1-(cyclopropylmethyl)-1H-indol-2-yl)-4-methoxy-3-methylbenzo[b]thiophen-6-yl)methanone]"
4,146 nM,"COc1cc(C(=O)N2CC3CCC2[C@@H]3N)cc2sc(-c3cc4ccc(N5CCC(OC)CC5)cc4n3CC3CC3)c(C)c12 (stereo partly drawn) [Example 131, ((7R)-7-Amino-2-azabicyclo[2.2.1]heptan-2-yl)(2-(1-(cyclopropylmethyl)-6-(4-methoxypiperidin-1-yl)-1H-indol-2-yl)-4-methoxy-3-methylbenzo[b]thiophen-6-yl)methanone]"
5,476 nM,"COc1cc(C(=O)N2CC3CCC2[C@@H]3N)cc2sc(-c3cc4ccc(-c5ccc6c(c5)CNC6=O)nc4n3CC3CC3)c(C)c12 (stereo partly drawn) [Example 132, 5-(2-(6-((7R)-7-Amino-2-azabicyclo[2.2.1]heptane-2-carbonyl)-4-methoxy-3-methylbenzo-[b]thiophen-2-yl)-1-(cyclopropylmethyl)-1H-pyrrolo[2,3-b]pyridin-6-yl)isoindolin-1-one]"
6,129 nM,"COc1cc(C(=O)N2CC3CCC2[C@@H]3N)cc2sc(-c3cc4ccc(-c5ccc(C(N)=O)c(F)c5)nc4n3CC3CC3)c(C)c12 (stereo partly drawn) [Example 133, 4-(2-(6-((7R)-7-Amino-2-azabicyclo[2.2.1]heptane-2-carbonyl)-4-methoxy-3-methylbenzo[b]thiophen-2-yl)-1-(cyclopropylmethyl)-1H-pyrrolo[2,3-b]pyridin-6-yl)-2-fluorobenzamide]"
7,212 nM,"COc1cc(C(=O)N2CC3CCC2[C@@H]3N)cc2sc(-c3cc4ccc(-c5cccc(O)c5F)nc4n3CC3CC3)c(C)c12 (stereo partly drawn) [Example 134, ((7R)-7-Amino-2-azabicyclo[2.2.1]heptan-2-yl)(2-(1-(cyclopropylmethyl)-6-(2-fluoro-3-hydroxyphenyl)-1H-pyrrolo[2,3-b]pyridin-2-yl)-4-methoxy-3-methylbenzo[b]thiophen-6-yl)methanone]"
8,233 nM,"COc1cc(C(=O)N2CC3CCC2[C@@H]3N)cc2sc(-c3cc4ccc(-c5ccc6c(c5)C(=O)NC6)nc4n3CC3CC3)c(C)c12 (stereo partly drawn) [Example 135, 6-(2-(6-((7R)-7-Amino-2-azabicyclo[2.2.1]heptane-2-carbonyl)-4-methoxy-3-methylbenzo[b]thiophen-2-yl)-1-(cyclopropylmethyl)-1H-pyrrolo[2,3-b]pyridin-6-yl)isoindolin-1-one]"

# Continued, compound first:
row,SMILES,IC50
1,"Cc1c(-c2cc3ccc(-c4ccc5c(c4)C(=O)NC5)nc3n2CC2CC2)nn2cc(C(=O)N3CC4CCC3[C@@H]4N)cnc12 (stereo partly drawn) [Example 110, 6-(2-(6-((7R)-7-Amino-2-azabicyclo[2.2.1]heptane-2-carbonyl)-3-methylpyrazolo[1,5-a]pyrimidin-2-yl)-1-(cyclopropylmethyl)-1H-pyrrolo[2,3-b]pyridin-6-yl)isoindolin-1-one]",1040 nM
2,"Cc1c(-c2cc3ccc(-c4ccc(O)c(F)c4)nc3n2CC2CC2)nn2cc(C(=O)N3CC4CCC3[C@@H]4N)cnc12 (stereo partly drawn) [Example 111, ((7R)-7-Amino-2-azabicyclo[2.2.1]heptan-2-yl)(2-(1-(cyclopropylmethyl)-6-(3-fluoro-4-hydroxyphenyl)-1H-pyrrolo[2,3-b]pyridin-2-yl)-3-methylpyrazolo[1,5-a]pyrimidin-6-yl)methanone]",15000 nM
3,"Cc1c(-c2cc3ccc(-c4ccc(C(N)=O)c(F)c4)nc3n2CC2CC2)nn2cc(C(=O)N3CC4CCC3[C@@H]4N)cnc12 (stereo partly drawn) [Example 112, 4-(2-(6-((7R)-7-Amino-2-azabicyclo[2.2.1]heptane-2-carbonyl)-3-methylpyrazolo[1,5-a]pyrimidin-2-yl)-1-(cyclopropylmethyl)-1H-pyrrolo[2,3-b]pyridin-6-yl)-2-fluorobenzamide]",572 nM
4,"COc1nc(C(=O)N2CC3CCC2[C@@H]3N)cn2nc(-c3cc4ccccc4n3CC3CC3)c(C)c12 (stereo partly drawn) [Example 113, ((7R)-7-Amino-2-azabicyclo[2.2.1]heptan-2-yl)(2-(1-(cyclopropylmethyl)-1H-indol-2-yl)-4-methoxy-3-methylpyrazolo[1,5-a]pyrazin-6-yl)methanone]",283 nM
5,"COc1nc(C(=O)N2C[C@H](N)C[C@@H](F)C2)cn2nc(-c3cc4ccccc4n3CC3CC3)c(C)c12 [Example 114, ((3R,5R)-3-Amino-5-fluoropiperidin-1-yl)(2-(1-(cyclopropylmethyl)-1H-indol-2-yl)-4-methoxy-3-methylpyrazolo[1,5-a]pyrazin-6-yl)methanone]",3980 nM
6,"COc1nc(C(=O)N2CC3CCC2[C@@H]3N)cn2nc(-c3cc4cccnc4n3CC3CC3)c(C)c12 (stereo partly drawn) [Example 115, ((7R)-7-Amino-2-azabicyclo[2.2.1]heptan-2-yl)(2-(1-(cyclopropylmethyl)-1H-pyrrolo[2,3-b]pyridin-2-yl)-4-methoxy-3-methylpyrazolo[1,5-a]pyrazin-6-yl)methanone]",3370 nM
7,"COc1nc(C(=O)N2CC3(CNC3)C2)cn2nc(-c3cc4cccnc4n3CC3CC3)c(C)c12 [Example 116, (2-(1-(Cyclopropylmethyl)-1H-pyrrolo[2,3-b]pyridin-2-yl)-4-methoxy-3-methylpyrazolo[1,5-a]pyrazin-6-yl)(2,6-diazaspiro[3.3]heptan-2-yl)methanone]",22800 nM
8,"COc1nc(C(=O)NC[C@H](F)CN)cn2nc(-c3cc4cccnc4n3CC3CC3)c(C)c12 [Example 117, (R)-N-(3-Amino-2-fluoropropyl)-2-(1-(cyclopropylmethyl)-1H-pyrrolo[2,3-b]pyridin-2-yl)-4-methoxy-3-methylpyrazolo[1,5-a]pyrazine-6-carboxamide]",15000 nM
9,"COc1cc(C(=O)N2CC3CCC2[C@@H]3N)cc2sc(-c3cc4ccccc4n3CC3CC3)c(C)c12 (stereo partly drawn) [Example 118, ((7R)-7-Amino-2-azabicyclo[2.2.1]heptan-2-yl)(2-(1-(cyclopropylmethyl)-1H-indol-2-yl)-4-methoxy-3-methylbenzo[b]thiophen-6-yl)methanone]",157 nM
10,"COc1cc(C(=O)N2CC3CCC2[C@@H]3N)cc2sc(-c3cc4cccnc4n3CC3CC3)c(C)c12 (stereo partly drawn) [Example 119, ((7R)-7-Amino-2-azabicyclo[2.2.1]heptan-2-yl)(2-(1-(cyclopropylmethyl)-1H-pyrrolo[2,3-b]pyridin-2-yl)-4-methoxy-3-methylbenzo[b]thiophen-6-yl)methanone]",84 nM
11,"COc1cc(C(=O)N2CC3CCC2[C@@H]3N)cc2sc(-c3cc4ccc(-c5ccc6c(c5)C(=O)NC6)cc4n3CC3CC3)c(C)c12 (stereo partly drawn) [Example 120, 6-(2-(6-((7R)-7-Amino-2-azabicyclo[2.2.1]heptane-2-carbonyl)-4-methoxy-3-methylbenzo[b]thiophen-2-yl)-1-(cyclopropylmethyl)-1H-indol-6-yl)isoindolin-1-one]",250 nM
12,"COc1cc(C(=O)N2CC3CCC2[C@@H]3N)cc2sc(-c3cc4ccc(-c5cccc(O)c5F)cc4n3CC3CC3)c(C)c12 (stereo partly drawn) [Example 121, ((7R)-7-Amino-2-azabicyclo[2.2.1]heptan-2-yl)(2-(1-(cyclopropylmethyl)-6-(2-fluoro-3-hydroxyphenyl)-1H-indol-2-yl)-4-methoxy-3-methylbenzo[b]thiophen-6-yl)methanone]",1500 nM
13,"COc1cc(C(=O)N2CC3CCC2[C@@H]3N)cc2sc(-c3cc4ccc(-c5ccn6c(C)nnc6c5)cc4n3CC3CC3)c(C)c12 (stereo partly drawn) [Example 122, ((7R)-7-Amino-2-azabicyclo[2.2.1]heptan-2-yl)(2-(1-(cyclopropylmethyl)-6-(3-methyl-[1,2,4]triazolo[4,3-a]pyridin-7-yl)-1H-indol-2-yl)-4-methoxy-3-methylbenzo[b]thiophen-6-yl)methanone]",68 nM
14,"COc1cc(C(=O)N2CC3CCC2[C@@H]3N)cc2sc(-c3cc4ccc(-c5ccc(C(N)=O)c(Cl)c5)cc4n3CC3CC3)c(C)c12 (stereo partly drawn) [Example 125, 4-(2-(6-((7R)-7-Amino-2-azabicyclo[2.2.1]heptane-2-carbonyl)-4-methoxy-3-methylbenzo[b]thiophen-2-yl)-1-(cyclopropylmethyl)-1H-indol-6-yl)-2-chlorobenzamide]",413 nM
15,"COc1cc(C(=O)N2CC3CCC2[C@@H]3N)cc2sc(-c3cc4ccc(-c5ccc6c(c5)CNC6=O)cc4n3CC3CC3)c(C)c12 (stereo partly drawn) [Example 126, 5-(2-(6-((7R)-7-Amino-2-azabicyclo[2.2.1]heptane-2-carbonyl)-4-methoxy-3-methylbenzo[b]thiophen-2-yl)-1-(cyclopropylmethyl)-1H-indol-6-yl)isoindolin-1-one]",122 nM
16,"COc1cc(C(=O)N2CC3CCC2[C@@H]3N)cc2sc(-c3cc4ccc(C)cc4n3CC3CC3)c(C)c12 (stereo partly drawn) [Example 127, ((7R)-7-Amino-2-azabicyclo[2.2.1]heptan-2-yl)(2-(1-(cyclopropylmethyl)-6-methyl-1H-indol-2-yl)-4-methoxy-3-methylbenzo[b]thiophen-6-yl)methanone]",98 nM
